From patent US6482609B1, “Isolated human EDG-4 receptor and polynucletide encoding said receptor” (priority 1997, dated 2002)

Assays:
HeLa cells = experiment: IL-8 ELISA on supernatants of treated HeLa cells; format: cell-based, human; conditions: for PTX sensitivity of the IL-8 response: PTX 50 ng/ml overnight pre-treatment; for IL-8 induction: concentration series up to 10 μM, 6 hours
Protocol: Procedure #1 For HeLa Cells
Cells: HeLa (adenocarcinoma, human)
Media: DMEM/F12+10%FBS adherent
1) Cells were seeded at 0.2×10^6 cells/well in 6-well plates.
2) 1.5 ml 0.5% FBS media was added to each well.
1) Made up all required solutions in 0.5% FBS media (control). Handling of […] for use in NF-κB experiments requires that sonication, commonly used to resuspend LPA, not be done; NF-κB may be activated by lipid peroxides created through vigorous frothing.
3) 1.5 ml appropriate treatments were added to each well.
5) After the specified time cell supernatants were collected into 1.5 ml eppendorf tubes, spun down at 14000 rpm for 5 minutes and stored at −20° C. for later ELISA determination.
D. Detection of Interleukin-8 (IL-8) using an IL-8 ELISA (Enzyme-Linked InimunoSorbent Assay).
1) The Quantikine Human IL-8 ImmunoAssay Kit was obtained from R&D Systems (Cat. D8050).
4) The assay procedure was followed as recommended in the kit for cell culture supernatant samples.
5) ELISA was performed on 50 μl samples of culture supernatant and duplicate samples were measured for each well. Each treatment was performed on triplicate wells.
6) Plates were read on UVmax kinetic microplate reader (Molecular Devices), set to 450 nm and correction set to 575 nm, using Wsoftmax software version 2.34.
Procedure #2 For HeLa Cells
1) Cells were seeded at 2.5×10^4 cells/well in 24-well plates.
2) 0.5 ml 0.5% FBS media was added to all wells not requiring PTX pre-treatment.
3) For wells requiring PTX; 0.5 ml 0.5% FBS media containing 50 ng/ml PTX (1 volume PTX (RBI Cat. P140): 1 volume DTT, incubate 37° C. for 30 minutes then dilute to 50 ng/ml) was added.
Follow Procedure #2 For HeLa Cells with the following exceptions:
Concentrations for LPC, LPE, LPG, LPS, sphingosine and SM used were 10, 50, 100, 1000, and 5000 nM. Concentrations for LPI, lyso-PAF and lysosulfatide used were 0.3 and 3 μM.
2) A 30 minute pre-treatment at 37° C./5%CO2 of 0.5 ml of suramin was done to all wells except control, any PTX and ET-18-OCH3 wells before step 3 of section C.

[1] = test system: 293-EBNA cells transfected with empty expression vector pcDNA3; experiment: NF-κB luciferase reporter in 293-EBNA cells, empty vector pcDNA3; format: cell-based; conditions: for NF-κB reporter response in control cells: pcDNA3-transfected 293-EBNA; for NF-κB reporter induction in control cells: pcDNA3, 3 μM, 6 hours, Assay #3
Protocol: Monolayer Transient Transfection Protocol for 293-EBNA
2) 6.6 μg NF-κB-tk-p4Luc reporter DNA and 6.6 μg of pC3-redg4 (expressing rat EDG-4), or pcDNA3 DNA was diluted in 500 μl OPTI-MEM (Gibco; Cat. 31985-062)
2) After 6 hrs, media was removed and cells treated with compounds diluted in 0.5% FBS media (140 μl added to each well).
3) Cells were treated for 24 hrs.
1) Luclite kit (Packard; Cat. 6016911) was used for luciferase assay. All reagents were brought to room temperature before use.
7) After incubation, plates were counted in a 12-detector Packard Top Count on a program without dark delay.
The above protocol for assay 1 was followed except for the following changes:
2) 3 μg NFκB-tk-p4Luc reporter DNA and 3 μg pC3-hedg1, pC3-hedg3, pC3-redg4, pC3-hedg5 or pcDNA3 DNA was diluted in 240 μl OPTI-MEM (Gibco; Cat. 31985-062)
(§1) 2) SRE Cotransfection: 0.5 μg of 2XSREtk-p4Luc-zeo reporter DNA and 3.5 μg pcDNA3, EDG-1, EDG-3 (pC3-hE3HP2, different from the clone used in Assay 2 of Example 11) or the newly cloned human EDG-4 (pC3-hedg4#36); NF-κB Cotransfection: 2 μg 6XNFκBtk-p4Luc-zeo reporter DNA and 2.0 μg pcDNA3, EDG-1, EDG-3 (pC3-hE3HP2), or EDG-4 (pC3-hedg4#36). Expression plasmid and reporter plasmid DNA samples were combined and diluted in 750 μl of DMEM/F12 (serum free media) and 20 μl Plus Reagent (Lipofectamine Plus Kit, Life Technologies Cat. 10964-013), and incubated at room temperature for 15 min.
(§2) 1) Media was removed and cells treated with compounds diluted in DMEM/F12 media.
(§3) 2) The cells were treated for 6 hours.
(§4) 293-EBNA cells were grown, lipofected in monolayer cultures, and pretreated as described above for Example 11, assay #1, except that NF-κB and AP-1 reporter-transfected cells were pretreated for 6 hr in medium containing 0.5% FBS, then treated overnight in the same medium with or without 10 μM LPA.

human EDG-4 = human EDG-4 (Homo sapiens, UniProt O95136); experiment: SRE luciferase reporter in 293-EBNA cells, human EDG-4; format: cell-based; conditions: for Agonist character at EDG-4: conclusion from the reporter assay of Table 2; for Rank (EMax): rank of efficacy among compounds tested
Protocol: (§5) NE-κB activates gene expression by binding to specific DNA sequences found in the promoters of genes regulated by this inflammation-related transcription factor. […] The SRE reporter was identical to the NF-κB reporter, except that the NF-κB binding sites were replaced with 2 SRE sites. The new reporter was called 2XSREtk-p4Luc-zeo.
(§6) The protocol described in Example 11 for Assay 1 was followed except for the following changes:
as §1, §2, §3
3) Luciferase assay was performed.
(§7) Transfection was accomplished using the Lipofectamine Plus kit (Life Technologies, Cat. 10964-013), using the manufacturer's recommended conditions.
Transfection of EDG-4, expression, pretreatment and treatment of 293-EBNA cells expressing recombinant human EDG-4 was carried out essentially as described in “Example 11. […] Results were tabulated in Microsoft Excel, and analyzed with GraphPad Prism software. […] The luciferase response was expressed as fold response, after subtracting any endogenous response in pcDNA3-transfected cells at a given concentration of compound.

[2] = test system: 293-EBNA cells transfected with empty expression vector pcDNA3; experiment: SRE luciferase reporter in 293-EBNA cells, empty vector pcDNA3; format: cell-based
Protocol: as §5, §6, §1, §2, §3, §7, §4

rat edg4 = rat edg4 (Rattus norvegicus, UniProt P47752); experiment: NF-κB-tk-p4Luc luciferase reporter in 293-EBNA cells, rat EDG-4; format: cell-based; design: expressed in transfected cells; host or cells: 293-EBNA
Sequence of rat edg4 (P47752 whole entry): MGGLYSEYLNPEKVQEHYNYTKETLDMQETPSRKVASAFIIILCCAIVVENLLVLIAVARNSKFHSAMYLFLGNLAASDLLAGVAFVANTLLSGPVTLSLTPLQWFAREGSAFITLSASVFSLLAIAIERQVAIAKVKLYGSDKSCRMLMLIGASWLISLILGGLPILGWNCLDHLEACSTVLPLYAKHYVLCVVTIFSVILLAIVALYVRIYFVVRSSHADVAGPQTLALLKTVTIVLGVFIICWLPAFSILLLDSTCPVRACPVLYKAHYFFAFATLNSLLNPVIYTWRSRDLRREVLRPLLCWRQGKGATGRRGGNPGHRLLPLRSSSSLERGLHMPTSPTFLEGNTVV
Protocol: 1) 150 mm plates of 293-EBNA obtained from Invitrogen (Cat. R620-07) with a confluency of ˜80% were used for transfection.
3) 96.8 μl Lipofectamine (Gibco; Cat. 18324-020) was diluted in 500 μl of OPTI-MEM.
6) 6 ml OPTI-MEM was added to each transfection tube and this was added to a plate of 293-EBNA cells. The plates were left for 4 hrs at 37° C. in a 5% CO2 incubator.
2) 0.02×10^6 cells were plated per well of a 96-well Blackview plate coated with polyD-lysine. No cells were plated in the outside wells of the 96well plate. Two 96-well plates were seeded for each transfection.
1) Cells were washed with PBS and 140 μl serum-free media (SFM) added to each well. Plates were incubated in 37° C. incubator for 6 hrs.
3) 50 μl 0.5M HEPES pH 7.8 buffer (1 mM MgCl2, 1 mM CaCl2) was added to all wells of 96-well plate. Black adhesive backing (Polyfitronics) was aligned to the bottom of the viewplate.
4) Luclite substrate was made up by adding 10 ml substrate diluent to 1 vial lyophilized substrate. Reconstituted substrate was kept under a dark container. 50 μl substrate was added to each well.
1) 0.01×10^6 cells were plated per well of a 96-well Blackview plate coated with polyD-lysine. No cells were plated in the outside wells of the 96-well plate.

[3] = Assay #2, S1P, SPC 3 μM, 20% FBS

Row | SMILES | PTX sensitivity of the IL-8 response (HeLa cells) | IL-8 induction (HeLa cells) | NF-κB reporter response in control cells [1, 3] | NF-κB reporter induction in control cells [1] | EC50 (human EDG-4; 293-EBNA expressing human EDG-4, luciferase after 6 hr, pcDNA3 response subtracted) [nM] | Agonist character at EDG-4 (human EDG-4) | Induction of the SRE reporter gene (human EDG-4; pC3-hedg4#36, 3 μM SPC, 6 hr, Example 15A) [fold] | Rank (EMax) (human EDG-4) | EMax (Percent) (human EDG-4; relative efficacy, 6 hr) [%] | Induction of the SRE reporter, control ([2]; 3 μM SPC, 6 hr, Example 15A) | Increase in luciferase activity (NF-κB reporter) (rat edg4; pC3-redg4, 3 μM, Assay #2) [fold] | PTX sensitivity of NF-κB reporter response (rat edg4; pC3-redg4, Assay #1) | NF-κB reporter induction (qualitative) (rat edg4; pC3-redg4, Assay #1, 24 hrs) | IL-8 production at 0.3 μM (HeLa cells; 0.3 μM, 6 hr) | IL-8 response (HeLa cells; 1 and 10 μM, 1, 6 or 24 hours) | Lowest concentration that reliably induces IL-8 (HeLa cells; repeated experiments) | NF-κB reporter response in control cells ([1]; Assay #1) | SRE response in control cotransfection ([2]; 3 μM, 6 hours, Assay #3) | Increase in luciferase activity (NF-κB reporter) (rat edg4; pC3-redg4, 1 μM, 24 hrs) [fold] | Increase in luciferase activity (NF-κB reporter) (rat edg4; pC3-redg4, 5 μM or 10 μM, 24 hrs)
1 | CCCCCCCCCCCCC/C=C/[C@@H](O)[C@@H](N)COP(=O)([O-])OCC[N+](C)(C)C [SPC, sphingosylphosphorylcholine] | PTX-sensitive | induce IL-8 in HeLa cells in a concentration-dependent manner | No response | No such induction | 880 | full agonists | 26.3 | 1 | 100 | about 2.5 fold | 4 | PTX-sensitive | induced the reporter gene in EDG-4 expressing cells |  |  |  |  |  |  | 
2 | CCCCCCCCCCCCC/C=C/[C@@H](O)[C@@H](N)COP(=O)(O)O [S1P, sphingosine-1-phosphate] | PTX-sensitive | induce IL-8 in HeLa cells in a concentration-dependent manner | No response | No such induction |  | full agonists |  | 2 |  |  | 3.5 |  |  | near plateau values | time- and concentration-dependent IL-8 response | about 30 nM | No increase in luciferase activity | about 1.5 fold | 2 | 4-4.5 fold
